This is an account of results in patent US12202829B2, “Heterocyclic compound” (FIMECS, Inc., priority 2018, dated 2025).

Structures can show the parent of a compound that is named as a salt. Where only a bound is given, the exact number is not on record here.

T1 sequence (P98170 252-356 limits assumed): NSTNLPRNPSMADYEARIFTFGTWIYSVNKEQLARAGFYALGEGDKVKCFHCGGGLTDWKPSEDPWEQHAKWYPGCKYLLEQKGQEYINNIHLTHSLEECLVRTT

One experiment addresses T1, human XIAP_BIR3 domain purified protein (Homo sapiens, UniProt P98170).
T1 construct: purchased R & D
The experiment in a line: XIAP binding inhibitory activity, HTRF method with b-Smac ligand. The conditions noted are these: second symbol of the cell; read-out: XIAP binding 50% inhibitory concentration (IC50 value). The protocol:
Human XIAP binding inhibitory activity were measured by the Homogeneous Time Resolved Fluorescence (HTRF) method with using commercially available human XIAP_BIR3 domain purified protein (R & D) and as a ligand a Smac N-terminal peptide (AVPIAQK (SEQ ID NO: 1)) (hereinafter referred to as “b-Smac”; Peptide Research Laboratories, Inc.) biotinylated at the C-terminus according to a conventional method.
The HTRF method will be described in detail below. A test compound diluted with a reaction buffer was added to a 384-well white shallow bottom plate (Greiner 784076) at 1 μL/well and flash centrifuged for 30 seconds. Subsequently, human XIAP_BIR3 domain purified protein was diluted with the reaction buffer (25 mM HEPES Buffer containing 100 mM NaCl, 0.1% BSA, and 0.1% triton X-100, pH 7.5) to obtain a 90 nM sample diluent, and the resultant sample diluent was added to the above-mentioned white superficial plate at 4.5 μL/well and flash centrifuged for 30 seconds. Subsequently, b-Smac diluted to 90 nM with the reaction buffer was added to the above-mentioned white superficial plat at 4.5 μL/well and flash centrifuged for 30 seconds. A mixed solution of Anti-6 HIS-Cryptate (Eu3+Cryptate-conjugated mouse monoclonal antibody anti-6 Histidine; cisbio) and Streptavidin-XL^ent! (Highgrade XL665-conjugated streptavidin; cisbio) both diluted 100-fold with HTRF detection buffer (cisbio) at a volume ratio of 1:1 was added to the above white superficial plate at 10 μL/well. After flash centrifuging the white shallow bottom plate for 30 seconds, the white shallow bottom plate was left at room temperature for 4 hours or more in the dark. The white superficial plate after being left was subjected to fluorescence intensity measurement (excitation wavelength: 320 nm, fluorescence wavelength: 665 nm and 615 nm) by EnVision (Perkin Elmer).
The binding inhibition rate (%) was calculated based on the HTRF ratio in the presence of the test compound to the HTRF ratio in the absence of the test compound (fluorescence intensity at 665 nm/fluorescence intensity at 615 nm).
A general note: TR-FRET usually uses a lanthanide donor and a delayed reading to cut background.
With `CN[C@@H](C)C(=O)N[C@H](C(=O)N1CCN(C(=O)c2cc3cc(F)c(F)cc3n2CCOCCOCCO)CC1)C1CCCCC1` [Example 47, (S)—N—((S)-1-Cyclohexyl-2-(4-(5,6-difluoro-1-(2-(2-(2-hydroxyethoxy)ethoxy)ethyl)-1H-indole-2-carbonyl)piperazin-1-yl)-2-oxoethyl)-2-(methylamino)propanamide], the IC50 is 3 to 30 µM.
Consider `CN[C@@H](C)C(=O)N[C@H](C(=O)N1CCN(C(=O)c2c(C)c3ccccc3n2CCOC)CC1)C1CCCCC1` [Example 51, (S)—N—((S)-1-Cyclohexyl-2-(4-(1-(2-methoxyethyl)-3-methyl-1H-indole-2-carbonyl)piperazin-1-yl)-2-oxoethyl)-2-(methylamino)propanamide], for which the IC50 lay within 3 to 30 µM.
For `CN[C@@H](C)C(=O)N[C@H](C(=O)N1CCN(C(=O)c2c(C(=O)NCCOCCOCCOCCOc3ccc(NC(=O)C[C@@H]4N=C(c5ccc(Cl)cc5)c5c(sc(C)c5C)-n5c(C)nnc54)cc3)c3cc(F)c(F)cc3n2C)CC1)C1CCCCC1` [Example 79, N-(2-(2-(2-(2-(4-(2-((S)-4-(4-chlorophenyl)-2,3,9-trimethyl-6H-thieno[3,2-f][1,2,4]triazolo[4,3-a][1,4]diazepin-6-yl)acetamido)phenoxy)ethoxy)ethoxy)ethoxy)ethyl)-2-(4-((S)-2-cyclohexyl-2-((S)-2-(methylamino)propanamido)acetyl)piperazine-1-carbonyl)-5,6-difluoro-1-methyl-1H-indole-3-carboxamide], the IC50 is 0.3 to 3 µM.
The same measure, in the same setting: as for `CN[C@@H](C)C(=O)N[C@H](C(=O)N1CCN(C(=O)c2c(OCCOCCO)c3cc(F)c(F)cc3n2C)CC1)C1CCCCC1` [Example 50, (S)—N—((S)-1-Cyclohexyl-2-(4-(5,6-difluoro-3-(2-(2-hydroxyethoxy)ethoxy)-1-methyl-1H-indole-2-carbonyl)piperazin-1-yl)-2-oxoethyl)-2-(methylamino)propanamide], the figure is 3 to 30 µM; as for `CN[C@@H](C)C(=O)N[C@H](C(=O)N1CCN(C(=O)c2cc3cc(F)c(F)cc3n2CCOCCOCc2ccccc2)CC1)C1CCCCC1` [Example 44, (S)—N—((S)-2-(4-(1-(2-(2-(Benzyloxy)ethoxy)ethyl)-5,6-difluoro-1H-indole-2-carbonyl)piperazin-1-yl)-1-cyclohexyl-2-oxoethyl)-2-(methylamino)propanamide], 3 to 30 µM.
On to `CN[C@@H](C)C(=O)N[C@H](C(=O)N1CCN(C(=O)c2c(OCCOCCOCc3ccccc3)c3cc(F)c(F)cc3n2C)CC1)C1CCCCC1` [Example 49, (S)—N—((S)-2-(4-(3-(2-(2-(Benzyloxy)ethoxy)ethoxy)-5,6-difluoro-1-methyl-1H-indole-2-carbonyl)piperazin-1-yl)-1-cyclohexyl-2-oxoethyl)-2-(methylamino)propanamide], for which the IC50 lay in the range of 3 to 30 µM.

Still in this experiment, the particulars now being: test compound 3 μM; first symbol of the cell; read-out: XIAP binding inhibition rate when the concentration of the test compound is 3 μM.
As for `CN[C@@H](C)C(=O)N[C@H](C(=O)N1CCN(C(=O)c2ccc3nc(C)nn3c2)CC1)C1CCCCC1` [Example 19, (S)-N-((S)-1-cyclohexyl-2-(4-(2-methyl-[1,2,4]triazolo[1,5-a]pyridine-6-carbonyl)piperazin-1-yl)-2-oxoethyl)-2-(methylamino)propanamide], the inhibition at 3 µM is greater than 25%.
As to `CN[C@@H](C)C(=O)N[C@H](C(=O)N1CCN(C(=O)c2ccc3cnn(C)c3c2)CC1)C1CCCCC1` [Example 17, (S)-N-((S)-1-cyclohexyl-2-(4-(1-methyl-1H-indazole-6-carbonyl)piperazin-1-yl)-2-oxoethyl)-2-(methylamino)propanamide], the inhibition at 3 µM was greater than 25%.
On to `CN[C@@H](C)C(=O)N[C@H](C(=O)N1CCN(C(=O)c2cc3cc(F)ccc3n2CC(=O)NCCOCCOCCNC(=O)C[C@@H]2N=C(c3ccc(Cl)cc3)c3c(sc(C)c3C)-n3c(C)nnc32)CC1)C1CCCCC1` [Example 76, (S)-N-((S)-2-(4-(1-(14-((S)-4-(4-chlorophenyl)-2,3,9-trimethyl-6H-thieno[3,2-f][1,2,4]triazolo[4,3-a][1,4]diazepin-6-yl)-2,13-dioxo-6,9-dioxa-3,12-diazatetradecyl)-5-fluoro-1H-indole-2-carbonyl)piperazin-1-yl)-1-cyclohexyl-2-oxoethyl)-2-(methylamino)propanamide], for which the inhibition at 3 µM was greater than 25%.
With `CN[C@@H](C)C(=O)N[C@H](C(=O)N1CCN(C(=O)c2ccc3nc(C)n(C)c3c2)CC1)C1CCCCC1` [Example 18, (S)-N-((S)-1-cyclohexyl-2-(4-(1,2-dimethyl-1H-benzo[d]imidazole-6-carbonyl)piperazin-1-yl)-2-oxoethyl)-2-(methylamino)propanamide], the inhibition at 3 µM is greater than 25%.
With `CN[C@@H](C)C(=O)N[C@H](C(=O)N1CCN(C(=O)c2ccc3c(c2)c(F)c(C)n3CCOCCOCCO)CC1)C1CCCCC1` [Example 71, (S)—N—((S)-1-Cyclohexyl-2-(4-(3-fluoro-1-(2-(2-(2-hydroxyethoxy)ethoxy)ethyl)-2-methyl-1H-indole-5-carbonyl)piperazin-1-yl)-2-oxoethyl)-2-(methylamino)propanamide], the inhibition at 3 µM is greater than 75%.
Regarding `CN[C@@H](C)C(=O)N[C@H](C(=O)N1CCN(C(=O)c2c(C(=O)NCCOCCOCC(=O)O)c3ccc(OC)cc3n2C)CC1)C1CCCCC1` [Example 37, 2-(2-(2-(2-(4-((S)-2-Cyclohexyl-2-((S)-2-(methylamino)propanamido)acetyl)piperazine-1-carbonyl)-6-methoxy-1-methyl-1H-indole-3-carboxamido)ethoxy)ethoxy)acetic Acid Hydrochloride], the inhibition at 3 µM was 50 to 75%.
On to `CN[C@@H](C)C(=O)N[C@H](C(=O)N1CCN(C(=O)c2c(C(=O)N(C)CC(=O)OC)c3ccc(OC)cc3n2C)CC1)C1CCCCC1` [Example 28, Methyl N-(2-(4-((S)-2-cyclohexyl-2-((S)-2-(methylamino)propanamido)acetyl)piperazine-1-carbonyl)-6-methoxy-1-methyl-1H-indole-3-carbonyl)-N-methylglycinate Hydrochloride], for which the inhibition at 3 µM was in the range of 50 to 75%.
With `CN[C@@H](C)C(=O)N[C@H](C(=O)N1CCN(C(=O)c2c(C(=O)NCCOC)c3ccc(OC)cc3n2C)CC1)C1CCCCC1` [Example 25, 2-(4-((S)-2-Cyclohexyl-2-((S)-2-(methylamino)propanamido)acetyl)piperazine-1-carbonyl)-6-methoxy-N-(2-methoxyethyl)-1-methyl-1H-indole-3-carboxamide Hydrochloride], the inhibition at 3 µM was greater than 75%.
Regarding `CN[C@@H](C)C(=O)N[C@H](C(=O)N1CCN(C(=O)c2cc(OCCOC)nn2C)CC1)C1CCCCC1` [Example 8, (S)-N-((S)-1-cyclohexyl-2-(4-(3-(2-methoxyethoxy)-1-methyl-1H-pyrazole-5-carbonyl)piperazin-1-yl)-2-oxoethyl)-2-(methylamino)propanamide], the inhibition at 3 µM was greater than 25%.
Take `CN[C@@H](C)C(=O)N[C@H](C(=O)N1CCN(C(=O)c2cc(C(F)(F)F)nn2C)CC1)C1CCCCC1` [Example 11, (S)-N-((S)-1-cyclohexyl-2-(4-(1-methyl-3-(trifluoromethyl)-1H-pyrazole-5-carbonyl)piperazin-1-yl)-2-oxoethyl)-2-(methylamino)propanamide]: the inhibition at 3 µM was greater than 25%.
In the case of `CN[C@@H](C)C(=O)N[C@H](C(=O)N1CCN(C(=O)c2cc3ccccn3c2)CC1)C1CCCCC1` [Example 7, (S)-N-((S)-1-cyclohexyl-2-(4-(indolizine-2-carbonyl)piperazin-1-yl)-2-oxoethyl)-2-(methylamino)propanamide], the inhibition at 3 µM is greater than 75%.
